# Measurements: patent US20250215039A1, “NUCLEOSIDES FOR TREATING CANCER” (PRIMEFOUR THERAPEUTICS, INC., priority 2022, published 2025)
# Where two headings read alike, the source gives them in different places.
# Tested on: cancer cell lines
# Assay: Cancer cell proliferation activity (CellTiterGlo, 72 h)
# Assay type: cell-based
# Conditions: 72 h, 72 h, read-out: IC50
# Summary of the method: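 Readout is CellTiterGlo luminescence after 72 h compound exposure (0.1% DMSO final), started one day post-seeding, at 37 °C.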
compound,measurement,setting,value
"O=c1[nH]c(=O)n([C@H]2C[C@H](O)[C@](CO)(CF)O2)cc1F [Cpd. No. 112, 5-fluoro-1-((2R,4S,5R)-5-(fluoromethyl)-4-hydroxy-5-(hydroxymethyl)tetrahydrofuran-2-yl)pyrimidine-2,4(1H,3H)-dione]",IC50,5637 cell line (bladder),2.89 µM
same,IC50,CLS439 cell line (bladder),> 50 µM
same,IC50,HS729 cell line (muscle),> 50 µM
same,IC50,HSS78T cell line,> 50 µM
same,IC50,JAR cell line (placenta),> 50 µM
same,IC50,SKMELS cell line,> 50 µM
same,IC50,"Homo sapiens, 22Rv1, 72 h, 22RV1 cell line (prostate)",1.5 µM
same,IC50,"Homo sapiens, 786-0, 72 h, 786O cell line (kidney)",> 50 µM
same,IC50,"Homo sapiens, A204, 72 h, A204 cell line (muscle)",5.28 µM
same,IC50,"Homo sapiens, A549, 72 h, A549 cell line",2.52 µM
same,IC50,"Homo sapiens, A673, 72 h, A673 cell line (bone)",5.33 µM
same,IC50,"Homo sapiens, A2780, 72 h, A2780 cell line (ovary)",> 50 µM
same,IC50,"Homo sapiens, A-375, 72 h, A375 cell line (skin)",6.3 µM
same,IC50,"Homo sapiens, A-431, 72 h, A431 cell line (skin)",0.34 µM
same,IC50,"Homo sapiens, ACHN, ACHN cell line (kidney)",1.51 µM
same,IC50,"Homo sapiens, ASPC1, 72 h, ASPC1 cell line (pancreas)",0.58 µM
same,IC50,"Homo sapiens, BT-20, 72 h, BT20 cell line (breast)",> 50 µM
same,IC50,"Homo sapiens, BXPC-3, 72 h, BXPC3 cell line (pancreas)",0.08 µM
same,IC50,"Homo sapiens, C-33-A, C33A cell line (cervical)",3.92 µM
same,IC50,"Homo sapiens, CAKI-1, 72 h, CAKI1 cell line (kidney)",> 50 µM
same,IC50,"Homo sapiens, COLO 205, 72 h, COLO205 cell line (colon)",1.83 µM
same,IC50,"Homo sapiens, COLO-678, 72 h, COLO678 cell line (colon)",> 50 µM
same,IC50,"Homo sapiens, Ca-Ski, CASKI cell line (cervical)",7.06 µM
same,IC50,"Homo sapiens, Caco-2, 72 h, CACO2 cell line (colon)",> 50 µM
same,IC50,"Homo sapiens, Calu-6, 72 h, CALU6 cell line (lung)",4.68 µM
same,IC50,"Homo sapiens, DLD-1, 72 h, DLD1 cell line (colon)",> 50 µM
same,IC50,"Homo sapiens, DU-145, 72 h, DU145 cell line (prostate)",3.15 µM
same,IC50,"Homo sapiens, EFO-21, 72 h, EFO21 cell line (ovary)",16.9 µM
same,IC50,"Homo sapiens, EJ-28, 72 h, EJ28 cell line (bladder)",5.41 µM
same,IC50,"Homo sapiens, Granta-519, 72 h, GRANTA-519 cell line (hematological)",3.3 µM
same,IC50,"Homo sapiens, HCT-15, 72 h, HCT15 cell line (colon)",> 50 µM
same,IC50,"Homo sapiens, HCT-116, 72 h, HCT116 cell line (colon)",> 50 µM
same,IC50,"Homo sapiens, HEK293, 72 h, HEK293 cell line (kidney)",> 50 µM
same,IC50,"Homo sapiens, HL-60, 72 h, HL-60 cell line (hematological)",> 50 µM
same,IC50,"Homo sapiens, HT-29, 72 h, HT29 cell line (colon)",2.8 µM
same,IC50,"Homo sapiens, HT-1080, 72 h, HT1080 cell line (connective tissue)",> 50 µM
same,IC50,"Homo sapiens, HeLa, HELA cell line (cervical)",> 50 µM
same,IC50,"Homo sapiens, HepG2, 72 h, HEPG2 cell line (liver)",3.4 µM
same,IC50,"Homo sapiens, IGROV-1, 72 h, IGROV1 cell line (ovary)",> 50 µM
same,IC50,"Homo sapiens, IMR-90, 72 h, IMR.90 cell line",> 50 µM
same,IC50,"Homo sapiens, J82, 72 h, J82 cell line (bladder)",1.32 µM
same,IC50,"Homo sapiens, JEG-3, 72 h, JEG3 cell line (placenta)",4.2 µM
same,IC50,"Homo sapiens, JIMT-1, 72 h, JIMT1 cell line (breast)",> 50 µM
same,IC50,"Homo sapiens, K562, 72 h, K-562 cell line (hematological)",> 50 µM
same,IC50,"Homo sapiens, Kasumi 1, 72 h, KASUMI-1 cell line (hematological)",> 50 µM
same,IC50,"Homo sapiens, L-363, 72 h, L-363 cell line (hematological)",5.63 µM
same,IC50,"Homo sapiens, LoVo, LOVO cell line (colon)",1.95 µM
same,IC50,"Homo sapiens, MCF7, 72 h, MCF7 cell line (breast)",1.04 µM
same,IC50,"Homo sapiens, MDA-MB-231, 72 h, MDAMB231 cell line (breast)",> 50 µM
same,IC50,"Homo sapiens, MDA-MB-435, 72 h, MDAMB435 cell line (skin)",> 50 µM
same,IC50,"Homo sapiens, MDA-MB-436, 72 h, MDAMB436 cell line (breast)",1.43 µM
same,IC50,"Homo sapiens, MDA-MB-468, 72 h, MDAMB468 cell line (breast)",> 50 µM
same,IC50,"Homo sapiens, MG-63, 72 h, MG63 cell line (bone)",4.7 µM
same,IC50,"Homo sapiens, MHH-ES-1, 72 h, MHHES1 cell line (bone)",> 50 µM
same,IC50,"Homo sapiens, MIA PaCa-2, 72 h, MIAPACA2 cell line (pancreas)",6.39 µM
same,IC50,"Homo sapiens, MINO, MINO cell line (hematological)",2.3 µM
same,IC50,"Homo sapiens, MV4-11, 72 h, MV4-11 cell line (hematological)",0.79 µM
same,IC50,"Homo sapiens, NCI-H23, 72 h, NCI-H23 cell line (lung)",4.86 µM
same,IC50,"Homo sapiens, NCI-H82, 72 h, NCIH82 cell line (lung)",> 50 µM
same,IC50,"Homo sapiens, NCI-H292, 72 h, NCIH292 cell line (lung)",> 50 µM
same,IC50,"Homo sapiens, NCI-H460, 72 h, NCIH460 cell line (lung)",2.29 µM
same,IC50,"Homo sapiens, OVCAR-3, 72 h, OVCAR3 cell line (ovary)",> 50 µM
same,IC50,"Homo sapiens, OVCAR-4, 72 h, OVCAR4 cell line (ovary)",> 50 µM
same,IC50,"Homo sapiens, PANC-1, 72 h, PANC1 cell line (pancreas)",> 50 µM
same,IC50,"Homo sapiens, PC-3, 72 h, PC3 cell line (prostate)",> 50 µM
same,IC50,"Homo sapiens, PLC-PRF-5, 72 h, PLCPRF5 cell line (liver)",3.79 µM
same,IC50,"Homo sapiens, Panc1005, 72 h, PANC1005 cell line (pancreas)",> 50 µM
same,IC50,"Homo sapiens, RD, RD cell line (muscle)",> 50 µM
same,IC50,"Homo sapiens, Ramos, RAMOS cell line (hematological)",> 50 µM
same,IC50,"Homo sapiens, SAOS-2, 72 h, SAOS2 cell line (bone)",6.6 µM
same,IC50,"Homo sapiens, SF-268, 72 h, SF268 cell line (brain)",3.94 µM
same,IC50,"Homo sapiens, SF-295, 72 h, SF295 cell line (brain)",3.65 µM
same,IC50,"Homo sapiens, SK-BR-3, 72 h, SKBR3 cell line (breast)",0.22 µM
same,IC50,"Homo sapiens, SK-HEP1, 72 h, SKHEP1 cell line (liver)",> 50 µM
same,IC50,"Homo sapiens, SK-LMS-1, 72 h, SKLMS1 cell line (uterus)",3.55 µM
same,IC50,"Homo sapiens, SK-MEL-28, 72 h, SKMEL28 cell line (skin)",> 50 µM
same,IC50,"Homo sapiens, SK-N-AS, SKNAS cell line (brain)",> 50 µM
same,IC50,"Homo sapiens, SK-N-SH, SKNSH cell line (brain)",> 50 µM
same,IC50,"Homo sapiens, SK-OV-3, 72 h, SKOV3 cell line (ovary)",3.18 µM
same,IC50,"Homo sapiens, SNB-75, 72 h, SNB75 cell line (brain)",> 50 µM
same,IC50,"Homo sapiens, SU-DHL10, 72 h, SU-DHL-10 cell line (hematological)",> 50 µM
same,IC50,"Homo sapiens, SU-DHL-6, 72 h, SU-DHL-6 cell line (hematological)",> 50 µM
same,IC50,"Homo sapiens, SW-620, 72 h, SW620 cell line (colon)",1.71 µM
same,IC50,"Homo sapiens, T-24, 72 h, T24 cell line (bladder)",5.25 µM
same,IC50,"Homo sapiens, TE-671, 72 h, TE671 cell line (muscle)",> 50 µM
same,IC50,"Homo sapiens, THP-1, 72 h, THP-1 cell line (hematological)",5.57 µM
same,IC50,"Homo sapiens, U2OS, U2OS cell line (bone)",> 50 µM
same,IC50,"Homo sapiens, U-87 MG, U87MG cell line (brain)",> 50 µM
same,IC50,"Homo sapiens, UMUC3, 72 h, UMUC3 cell line (bladder)",7.75 µM
same,IC50,"Homo sapiens, UO-31, 72 h, UO31 cell line (kidney)",> 50 µM
same,IC50,"Homo sapiens, WSU-NHL, WSU-NHL cell line (hematological)",5.66 µM
same,IC50,"MT-3, 72 h, MT3 cell line (breast)",3.17 µM
same,IC50,"NCI-H358M, NCIH358M cell line (lung)",9.06 µM
same,IC50,"PBMC, PBMC (hematological)",> 50 µM
same,IC50,"RD-ES, RDES cell line (bone)",3.48 µM
